Experimental findings from patent publication US10538571B2, “Compositions and methods for neurological diseases” (Coda Biotherapeutics, Inc., priority 2017, dated 2020) are described below.

In this assay the target is T1, engineered chimeric LGIC receptor SEQ ID NO:41 (Homo sapiens, UniProt P36544, F159M/H163T/I152M/K68T/N69T/Q70M/R155K/V154L/W156N/Y151P).
T1 construct: expressed in transfected cells; host or cells: Lenti-X 293T cells stably expressing YFP (H148Q/I152L) reporter; pcDNA3.1(+) plasmid
T1 sequence (P36544 with tags, fused parts or gaps K68T/N69T/Q70M/Y151P/I152M/V154L/R155K/W156N/F159M/H163T): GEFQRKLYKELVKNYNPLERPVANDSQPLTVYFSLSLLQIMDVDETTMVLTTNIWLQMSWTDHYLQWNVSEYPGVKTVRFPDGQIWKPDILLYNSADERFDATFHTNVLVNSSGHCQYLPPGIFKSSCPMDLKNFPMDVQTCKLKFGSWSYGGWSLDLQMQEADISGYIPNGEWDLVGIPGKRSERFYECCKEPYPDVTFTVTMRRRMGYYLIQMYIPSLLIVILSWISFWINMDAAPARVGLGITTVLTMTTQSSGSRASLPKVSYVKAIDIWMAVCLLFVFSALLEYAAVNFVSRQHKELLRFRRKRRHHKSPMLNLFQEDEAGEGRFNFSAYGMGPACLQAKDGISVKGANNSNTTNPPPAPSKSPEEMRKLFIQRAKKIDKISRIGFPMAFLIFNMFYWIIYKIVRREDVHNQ
Nature of the assay: Plate reader YFP quench plots. The format is cell-based. The settings on record: FIG. 7. As for the experimental part: Lenti-X 293T cells (LX293T, Clontech) were maintained in DMEM containing 10% FBS and 1% penicillin/streptomycin (Invitrogen). […] The next day, the cells were transiently transfected with 0.1 μg of DNA per well using standard Fugene protocol (Promega). On the day of assay, cells were washed 2 times in 1× extracellular solution (1×ECS: 140 mM NaCl, 5 mM KCl, 1 mM MgCl2, 2 mM CaCl2, 10 mM HEPES, 10 mM glucose, pH 7.2, mOsms 300). After the last wash, 100 μL of 1×ECS was added to the wells and the plate was incubated at 37° C. for 30 min. While incubating the plate, the drugs were diluted to a 2× concentration in 1×ECS-NaI (same components as 1×ECS except the 140 mM NaCl was replaced by 140 mM NaI). The plates were then read on a Flexstation3 (Molecular Devices). Each well, 8 wells at a time, of the plate is read for 2 min using a Flexstation3 (Molecular Devices) as follows: 1) a baseline YFP fluorescence is read for 17 sec, 2) 100 μL of ligand is added, and 3) the changes in YFP fluorescence are then measured every 1.3 sec for the remaining time.
To further tune the responsiveness of the engineered LGIC receptors to native and non-native ligands, the binding pocket of each ligand in the alpha7-nAChR was modeled and the amino acid residues that form the binding pocket were mapped. […]

Molecules are shown by their SMILES.

As for `c1cnc2c(c1)C[C@@]1(CN3CCC1CC3)O2` [AZD-0328], the “response of Chimera #41 compared with Chimera #33” value was “responds to lower doses”.
